Entries after “also recorded” stand apart in the source; their conditions may differ.
Assays:
[1] = system: YES and YAS Saccharomyces cerevisiae yeasts; assay: Yeast cytotoxicity (growth factor, absorbance at 690 nm)
[2] = system: estrogen responsive elements (ERE-luc or AP-1-luc); set-up: method as in PMID 20209442; conditions: 10 μM of MEHP; cited from earlier work
estrogen receptor = system: estrogen receptor; set-up: method as in PMID 26272952; conditions: computational network model; cited from earlier work
human ERα = system: human ERα; set-up: method as in PMID 15840436; conditions: 10.0 μM of MEHP in the presence of 10.0 pM E2; cited from earlier work
male rats = system: male rats; set-up: method as in PMID 17654256; conditions: cited from earlier work
MCF-7 cells = system: MCF-7 cells; set-up: method as in PMID 12913283; conditions: cited from earlier work
budding yeast = system: budding yeast; set-up: method as in PMID 29783050; conditions: cited from earlier work
fetal testis = conditions: cited from earlier work

CCCCC(CC)COC(=O)c1ccccc1C(=O)O (stereo not drawn) [MEHP, mono-(2-ethylhexyl) phthalate]
cytotoxicity (yeast cell viability) ([1]; 100 nM to 1.00 mM): did not induce yeast toxicity; also recorded: no effect
cytotoxicity (yeast cell viability) ([1]; 10.0 mM, growth factor below 0.5): significant cytotoxicity
estrogenic activity [2]: estrogenic effect
anti-estrogenic activity (estrogen receptor): no anti-estrogenic activity
anti-estrogenic activity (human ERα): no anti-estrogenic activity
weights of ventral prostate, seminal vesicles and levator ani/bulbocavernosus (LABC) (male rats): decreased weights
anti-estrogenic activity (MCF-7 cells): decrease of natural estrogenic activity
concentration at which cytotoxicity was induced (budding yeast): 1600 µM
testosterone production (fetal testis): did not affect

Reference: publication PMC6515293 (Molecules, 2019)
